According to patent US6087346A, “Sigma receptor ligands and the use thereof” (Cambridge Neuroscience, Inc., priority 1996, dated 2000):
Counter-ions that a name gives are not always drawn. Like-named read-outs stand apart in the source and are kept apart here.

Columns and labels:
sigma-2 receptor = molecular target: T1, sigma-2 receptor (Cavia porcellus, UniProt H0V073); experiment: Sigma-2 binding assay ([^3 H]DTG in the presence of (+)pentazocine); design: species or system guinea pig
T1 construct: of guinea pig brain membranes in a total volume of 0.5 ml; from tissue; host or cells: guinea pig brain membranes
T1 sequence (H0V073 1-176): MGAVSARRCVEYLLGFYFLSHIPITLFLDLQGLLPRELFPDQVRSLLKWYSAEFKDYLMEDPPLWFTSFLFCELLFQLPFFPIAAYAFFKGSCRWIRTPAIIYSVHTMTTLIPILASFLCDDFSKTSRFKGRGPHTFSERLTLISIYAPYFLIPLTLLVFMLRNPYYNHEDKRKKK
Source text: Protocols of the Sigma-1 and Sigma-2 binding assays employed are as follows:

sigma-1 receptor [1] = molecular target: T2, sigma-1 receptor (Cavia porcellus, UniProt Q60492); experiment: biochemical
Method: (§1) Non-specific binding was determined in the presence of 10 μM haloperiodol. For the standard equilibrium assay the mixtures were incubated for 4-5 hours at 37° C., quenched with 4 ml of ice cold incubation buffer and rapidly filtered over Whatman GF/B glass fiber filters, followed by three 4 ml rinses with additional ice cole incubation buffer.

[2] = molecular target: sigma receptor (sigma-1 and sigma-2 sites); experiment: Sigma receptor binding assay ([^3 H]DTG, guinea pig brain membrane homogenates); settings: for IC50: Example 3 table, tested by the [^3 H]DTG assay of Example 2; for Ki: Table II, [^3 H]DTG 1.4 nM, guinea pig brain membranes, pH 7.4, 90 minutes room temperature, IC50 values indicated as Ki, read-out: Ki nM (± SEM)
Method: Briefly, frozen whole guinea-pig brains (Biotrol, Indianapolis, Ind.) were homogenized in 10 volumes (w/v) of ice-cold 320 mM sucrose using a Brinkman® polytron. The homogenate was centrifuged at 1,000× g for 20 minutes at 4° C. The supernatant was centrifuged at 20,000× g for 20 minutes at 4° C. The resulting pellet was resuspended in 10 initial volumes of 50 mM Tris/HCI buffer at pH 7.4 and centrifuged at 20,000× g for 20 minutes at 4° C. The resulting pellet was resuspended in 5 initial volumes ice-cold 50 mM Tris/HCl (pH 7.4), and the final volume was adjusted to yield a protein concentration of 3 mg/mL.
The protein concentration in the 1-ml final incubation volume was 800 μg/ml, corresponding to 32 mg of brain tissue (original wet weight) and to a tissue concentration within the linear range for specific binding.
The volume of the assays may be changed, specifically halved, so long as the concentrations of the constituents remain the same. […] Incubations were terminated after 90 minutes at room temperature by addition of 4 ml of ice-cold 50 mM Tris/HCI (pH 7.4) and rapid filtration of the membrane suspension through Whatman® GF/B or Schieicher & Schuell #32 glass-fiber filters under vacuum, using a 48-well cell harvester (Brandel). The filters were washed 2 times with 4 mL of 50 mM Tris/HCI (pH 7.4). Each filter was suspended in 10 ml Cytoscint (ICI), and radioactivity was measured by liquid scintillation spectrometry at a counting efficiency of approximately 50%. IC50 values (indicated as Ki in Tables II below) were determined by non-linear regression analysis.

sigma-1 receptor [3] = molecular target: T2, sigma-1 receptor; settings: pH 8
Method: as §1

[4] = system: NMDA-induced toxicity and seizures; settings: in vivo; Pontecorvo et al.; cited from earlier work
sigma-1 site = sigma-1 site (Cavia porcellus, UniProt Q60492); settings: Hellewell and Bowen (1990); cited from earlier work
sigma sites = settings: in words; cited from earlier work
DA sites = settings: cited from earlier work
opiate receptors = settings: cited from earlier work
PCP receptors = settings: cited from earlier work
gerbils = settings: in vivo, Rao et al.; cited from earlier work
[5] = system: NMDA-type of glutamate receptors; settings: Rao et al.; cited from earlier work

T2 sequence (Q60492 whole entry): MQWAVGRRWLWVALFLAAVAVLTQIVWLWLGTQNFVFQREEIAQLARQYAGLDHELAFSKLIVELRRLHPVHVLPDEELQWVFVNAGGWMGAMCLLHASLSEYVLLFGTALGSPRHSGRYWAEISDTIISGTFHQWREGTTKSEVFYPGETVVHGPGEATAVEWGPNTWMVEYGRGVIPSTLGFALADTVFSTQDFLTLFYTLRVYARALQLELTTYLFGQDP
Sequence of sigma-1 site (Q60492 whole entry): as above

SMILES	IC50 (sigma-2 receptor; read-out: Sigma 2 IC50)	Ki (sigma-1 receptor [1])	Ki [2]	other results
CN1CCC(=CCCCCc2ccccc2)CC1	258 nM	9.87 nM		
CC(Cc1ccccc1)NCCCCc1ccccc1 (centres unmarked)		7.38 nM		IC50 (sigma-2 receptor): 47.5 nM
CNC(CCCCCc1ccccc1)CCCCCc1ccccc1				IC50 [2]: 2.97 nM
c1ccc(Cc2cccc(CN3CCCCC3)c2)cc1	98.2 nM	5.44 nM		
c1ccc(CCCCCN2CCCC2)cc1	69.7 nM	0.76 nM		IC50 [2]: 4.95 nM
O=C(CCCCN1CCCCC1)c1ccc(Cl)cc1 [Compound 19]			1.2 nM	
O=C(CCCCN1CC=C(c2ccc(F)cc2)CC1)c1ccc(Cl)cc1 [Compound 13]			2 nM	
COc1cccc(CCCCCN2CCCCC2)c1 [Compound 25]			10.7 nM	
O=C(CCCCN1CCCCC1)c1cccc(Cl)c1 [Compound 20]			3.8 nM	
c1ccc(CCCCCN2CCCCC2Cc2ccccc2)cc1 (centres unmarked)	10.4 nM	0.36 nM		
CN(CCCCC(O)c1cccc(C(F)(F)F)c1)CCc1ccccc1 (centres unmarked)	3.02 nM	0.95 nM		
O=C(CCCCN1CC=C(c2ccc(Cl)cc2)CC1)c1ccc(Cl)cc1 [Compound 12]			4.3 nM	
CC1CCN(CCCC=C(c2ccccc2)c2ccccc2)CC1	25 nM			
c1ccc(CCCCCNCCc2ccccc2)cc1				IC50 [2]: 3.66 nM
C(CCCNCCc1ccccc1)=C(c1ccccc1)c1ccccc1	142 nM			
O=C(CCCCN1CCC(c2ccccc2)CC1)c1ccc(Cl)cc1 [Compound 7]			0.5 nM	
O=C(CCCCN1CCC(c2ccc(Cl)cc2)CC1)c1ccc(Cl)c(Cl)c1 [Compound 1, 1,2,4-Dichlorophenyl-5-[4-(4-chlorophenyl)-1-piperidino]pentanone Hydrochloride]			1.8 nM	
O=C(CCCCN1CCC(c2ccccc2)CC1)c1cccc(Cl)c1 [Compound 8]			1.1 nM	
CC1CCN(CCCCC(c2ccccc2)c2ccccc2)CC1				IC50 (sigma-2 receptor; about 2 nM [^3 H]DTG with 200 nM (+)pentazocine, guinea pig brain membranes, pH 7.4, 30 minutes room temperature, read-out: Sigma 2 IC50): 16.7 nM; Ki (sigma-1 receptor [3]): 0.1 nM
CN(CCCCC(=O)c1cccc(C(F)(F)F)c1)CCc1ccccc1	1.27 nM	0.71 nM		
CN1CCC(CCCCCc2ccccc2)CC1	97.3 nM	0.6 nM		

SMILES	IC50 (sigma-2 receptor; read-out: Sigma 2 IC50)	Ki (sigma-1 receptor [1])	Ki [2]	other results
c1ccc(CCCCCN2CCCC(Cc3ccccc3)C2)cc1 (centres unmarked)	4.17 nM	0.07 nM		
c1ccc(CNCCCN2CCN(c3ccccc3)CC2)cc1	101 nM	1.96 nM		
OC(CCCN1CCN(c2ncc(F)cn2)CC1)c1ccc(F)cc1 (centres unmarked) [BMY-14802]				protective effects against NMDA-induced toxicity and seizures [4]: in vivo protective effects against NMDA-induced toxicity and seizures
O=C(CCCCN1CCC(c2ccc(Cl)cc2)CC1)c1ccc(Cl)cc1 [Compound 10]			1.8 nM	
COc1ccc(C(=O)CCCCN2CCCCC2)cc1 [Compound 21]			9.9 nM	
CN(CCCCCc1cccc(C(F)(F)F)c1)CCc1ccccc1	3.57 nM	0.59 nM		
O=C(CCCCN1CCCCC1)c1ccccc1 [Compound 17]			25.2 nM	
CC(C)=CCN1CCC2(C)c3cc(O)ccc3CC1C2C (single isomer, unassigned; (+)) [(+)pentazocine]				affinity for the sigma-1 site compared to the sigma-2 site (sigma-1 site): nearly two orders of magnitude higher affinity for the sigma-1 site compared to the sigma-2 site
COc1ccc(CCCCCN2CCC(c3ccccc3)CC2)cc1 [Compound 16]			1.2 nM	
c1ccc(CCCCCN2CCCCC2c2ccccc2)cc1 (centres unmarked)	4.7 nM	0.16 nM		
COc1cccc(C(=O)CCCCN2CCCCC2)c1 [Compound 22]			20.7 nM	
O=C(CCCN1CCC2(CC1)C(=O)NCN2c1ccccc1)c1ccc(F)cc1 [spiperone]				affinity for sigma sites (sigma sites): essentially no affinity for sigma sites; affinity for DA sites (DA sites): high affinity for DA sites
CN(CCCC=C(c1ccccc1)c1ccccc1)CCc1ccccc1	40.8 nM	0.9 nM		
O=C(CCCCN1CCC(O)(c2ccc(Cl)cc2)CC1)c1ccc(F)cc1 [Compound 4]			2.6 nM	
CCN(CC)CCCCC(c1ccccc1)c1ccccc1	51.2 nM	1.42 nM		
Clc1ccc(CCCCCN2CCC(c3ccccc3)CC2)cc1 [Compound 15]			1.8 nM	
CCN(CC)CCOC(=O)C1(c2ccccc2)CCCC1 [caramiphen]				protective effects against NMDA-induced toxicity and seizures [4]: in vivo protective effects against NMDA-induced toxicity and seizures
c1cc2c(cc1CCCCCN1CCCCC1)OCO2 [drawing 25]				IC50 [2]: 2.25 nM
C=CCN1CCC2(C)c3cc(O)ccc3CC1C2C (centres unmarked) [NANM, N-allyl normetazocine]				affinity at typical opiate receptors (opiate receptors): low affinity; affinity at PCP receptors (PCP receptors): significant affinity
c1ccc2c(c1)C1CC2C(N2CCCCC2)C1 (centres unmarked)				IC50 (sigma-2 receptor; read-out: Sigma 2 IC50, about 2 nM [^3 H]DTG with 200 nM (+)pentazocine, guinea pig brain membranes, pH 7.4, 30 minutes room temperature): 5.29 nM; Ki (sigma-1 receptor [3]): 0.13 nM
CCN(CC)CCCCCc1ccccc1	88.5 nM	6.01 nM		

SMILES	IC50 (sigma-2 receptor; read-out: Sigma 2 IC50)	Ki (sigma-1 receptor [1])	Ki [2]	other results
OCCN1CCN(CCCN2c3ccccc3C=Cc3ccccc32)CC1 [opipramol]				affinity for sigma sites (sigma sites): potent sigma receptor ligand; protection against ischemia (gerbils): protect against ischemia in gerbils; biochemical effects on NMDA-type glutamate receptors [5]: biochemical effects consistent with modulation of the NMDA-type of glutamate receptors
CC(Cc1ccccc1)NCCCCCc1ccccc1 (centres unmarked)		0.54 nM		IC50 (sigma-2 receptor): 10.9 nM
c1ccc(CCCCCN2CCC(c3ccccc3)CC2)cc1 [Compound 14]			0.9 nM	
COc1cccc(C(=O)CCCCN2CCC(c3ccccc3)CC2)c1 [Compound 9]			1 nM	
Clc1ccc(CCCCCN2CCCCC2)cc1 [Compound 3, N-[5-(4-Chlorophenyl)pentyl]piperidine Hydrochloride]			2 nM	
COc1ccc(CCCCCN2CCCCC2)cc1 [Compound 24]			4.7 nM	
CN(CCCCC(c1ccccc1)c1ccccc1)CCc1ccccc1	31.5 nM			
O=[N+]([O-])c1ccc(CCCCCN2CCCCC2)cc1	9.91 nM	0.16 nM		
CN(CCCCCc1ccccc1)CCc1cccc(C(F)(F)F)c1	14.4 nM	1.74 nM		
CN1CCN(CCCCCc2ccccc2)CC1	78.9 nM	1.44 nM		
O=C(CCCCN1CCCCC1)c1ccc(F)cc1 [Compound 18]			6.7 nM	
c1cc2c(cc1CCCCCN1CCCCC1)OCO2 [drawing 38]	63.4 nM	0.32 nM		
CC1CCN(CCCCCc2ccccc2)CC1	7.1 nM	0.08 nM		
CN(CCCCCc1ccccc1)CCc1ccccc1	4.98 nM			IC50 [2]: 1.3 nM; Ki (sigma-1 receptor [3]): 0.25 nM
COc1ccc(C(=O)CCCCN2CCC(c3ccccc3)CC2)cc1 [Compound 2, 1-(4-Methoxyphenyl)-5-(4-phenyl-l-piperidino)pentanone Hydrochloride]			0.8 nM	
c1ccc(CCCCCN2CCCCC2)cc1 [Compound 23]			1.9 nM	
O=C(CCCCN1CCC(c2ccccc2)CC1)c1ccccc1 [Compound 6]			0.9 nM	
O=C(CCCCN1CCC(c2ccccc2)CC1)c1ccc(F)cc1 [Compound 5]			0.8 nM	
c1ccc(CCNCCCCC(c2ccccc2)c2ccccc2)cc1	100 nM	0.68 nM		
